# Measured values taken from ChEMBL document CHEMBL1147283, “Bullatacin and bullatacinone: two highly potent bioactive acetogenins from Annona bullata” (J Nat Prod, 1989).
# Activity calls are given as the source filed them. No cut-off for these calls is given here.
# Assays:
# [1] = Toxicity in brine shrimp; type: organism-based; details: artemia, in vivo
# A549 = experiment: Cytotoxicity against human A549 cells; type: functional, cell-based; details: for EC50: Homo sapiens, A549, read-out: ED50 (the source's name)
# [2] = (§1) Cytotoxicity against human 9KB cells; type: functional
# [3] = (§2) Cytotoxicity against mouse 9PS cells; type: functional; details: read-out: ED50 (the source's name)
# HT-29 = experiment: Cytotoxicity against human HT-29 cells; type: functional, cell-based
# Aphis gossypii [4] = experiment: Pesticidal activity against Aphis gossypii at 100 ppm relative to control; type: functional
# [5] = test system: Diabrotica undecimpunctata; experiment: Pesticidal activity against Diabrotica undecimpunctata howardi at 24 ppm relative to control; type: functional
# [6] = test system: Diabrotica undecimpunctata; experiment: Pesticidal activity against Diabrotica undecimpunctata howardi at 6 ppm relative to control; type: functional
# Aphis gossypii [7] = experiment: Pesticidal activity against Aphis gossypii at 400 ppm relative to control; type: functional
# Aedes aegypti [8] = experiment: Pesticidal activity against Aedes aegypti larvae at 0.5 ppm relative to control; type: functional
# Aedes aegypti [9] = experiment: Pesticidal activity against Aedes aegypti larvae at 1 ppm relative to control; type: functional
# Spodoptera eridania [10] = experiment: Pesticidal activity against Spodoptera eridania at 100 ppm relative to control; type: functional
# Tetranychus urticae [11] = experiment: Pesticidal activity against Tetranychus urticae at 400 ppm relative to control; type: functional
# Tetranychus urticae [12] = experiment: Pesticidal activity against Tetranychus urticae at 100 ppm relative to control; type: functional
# Aphis gossypii [13] = experiment: Pesticidal activity against Aphis gossypii at 10 ppm relative to control; type: functional
# Tetranychus urticae [14] = experiment: Pesticidal activity against Tetranychus urticae at 10 ppm relative to control; type: functional
# Aedes aegypti [15] = experiment: Pesticidal activity against Aedes aegypti larvae at 10 ppm relative to control; type: functional
# Spodoptera eridania [16] = experiment: Pesticidal activity against Spodoptera eridania at 400 ppm relative to control; type: functional
# [17] = Displacement of radiolabeled ligand form protein kinase C at 10 uM
# 9KB = experiment: as §1; type: functional
# Mus musculus = species: Mus musculus; experiment: as §2; type: functional
smiles,measurement,setting,value
C=C1C[C@@]23CC[C@H]4[C@@](C)(CCC[C@]4(C)C(=O)O)[C@@H]2CCC1C3,LC50,[1],0.87 µg/mL
CCCCCCCCCC[C@H](OC(C)=O)[C@H]1CC[C@H]([C@H]2CC[C@H]([C@@H](CCCCCCCCCC[C@H](CC3=C[C@H](C)OC3=O)OC(C)=O)OC(C)=O)O2)O1 [BULLATACIN TRIACETATE],EC50,A549,0.002 µg/mL
same,LC50,[1],5.7 µg/mL
same,ED50,[2],6.85 ×10⁻⁷ ug/ml
same,EC50,[3],0.00389 µg/mL
same,EC50,"HT-29; Homo sapiens, HT-29, read-out: ED50 (the source's name)",> 0.1 µg/mL
CCCCCCCCCC[C@H](OC(C)=O)[C@H]1CC[C@H]([C@H]2CC[C@H]([C@@H](CCCCCCCCCC[C@@H]3C[C@@H](CC(C)=O)C(=O)O3)OC(C)=O)O2)O1 [BULLATACINONE DIACETATE],EC50,A549,0.028 µg/mL
same,LC50,[1],> 10 µg/mL
same,EC50,"[2]; Homo sapiens, 9KB, read-out: ED50 (the source's name)",0.005 µg/mL
same,EC50,[3],0.0422 µg/mL
same,ED50,HT-29,1 ×10⁻¹ umol/L
CCCCCCCCCC[C@H](O)[C@H]1CC[C@H]([C@H]2CC[C@H]([C@H](O)CCCCCCCCCC[C@@H]3CC(CC(C)=O)C(=O)O3)O2)O1 (stereo partly specified) [BULLATACINONE],Activity,Aphis gossypii [4],0%
same,Activity,[5],0%
same,EC50,A549,0.001 µg/mL
same,Activity,[6],0%
same,Activity,Aphis gossypii [7],0%
same,Activity,Aedes aegypti [8],0%
same,LC50,[1],0.003 µg/mL
same,Activity,Aedes aegypti [9],0%
same,Activity,Spodoptera eridania [10],0%
same,Activity,Tetranychus urticae [11],0%
same,ED50,[2],<1 ×10⁻¹² ug/ml
same,Activity,Tetranychus urticae [12],0%
same,Activity,Aphis gossypii [13],0%
same,EC50,[3],0.00423 µg/mL
same,Activity,Tetranychus urticae [14],0%
same,Activity,Aedes aegypti [15],0%
same,Activity,Spodoptera eridania [16],0%
same,ED50,HT-29,5 ×10⁻¹² ug/ml
CCCCCCCCCC[C@@H](O)[C@@H]1CC[C@@H]([C@@H]2CC[C@@H]([C@H](O)CCCCCCCCCC(O)CC3=CC(C)OC3=O)O2)O1 (stereo partly specified) [BULLATACIN],Activity,[17],7%
CCCCCCCCCC[C@H](O)[C@H]1CC[C@H]([C@H]2CC[C@H]([C@H](O)CCCCCCCCCC[C@@H](O)CC3C[C@H](C)OC3=O)O2)O1 (stereo partly specified) [DIHYDROBULLATACIN],ED50,A549,<1 ×10⁻⁶ ug/ml
same,LC50,[1],0.0145 µg/mL
same,ED50,HT-29,3.33 ×10⁻⁵ ug/ml
O=C1c2ccccc2-c2c3c(cc4ccnc1c24)OCO3 [LIRIODENINE],LC50,[1],1.1 µg/mL
same,Activity,9KB,inactive
same,Activity,Mus musculus,inactive
